For one assay, the system named is osteoclasts. The assay is described as follows: Inhibitory effect on resorption activity of osteoclast (resorption pit area on calcium phosphate-coated plate). Type of assay: cell-based, mice. As to conditions: compared to control. How it is done:
After finishing culture, the plate was washed with distilled water, and 50 μl/well of 5% sodium hypochlorite was added to the plate. The plate was let alone for 5 min, washed again with distilled water to remove the adherent cells, and dried at room temperature. Then, the area of formed resorption pits was calculated by means of Image Pro Plus software (Media Cybernetics Ver. 3.0).

The subject of assay [1] is osteoclast (TRAP-positive multinuclear cell) formation. The assay is described as follows: Inhibitory effect on osteoclast formation (TRAP staining). It is filed as cell-based, mice. The note with it: 8 days culture with M-CSF and RANKL, compared to control. How it is done: The inhibitory activities of the alpha-arylmethoxyacrylate derivatives prepared in the above Examples on the proliferation of osteoclasts were examined as follows.
First, a bone marrow sample containing osteoclast pregenitor cells was isolated as follows. After sacrificing 7 to 9 week-old female mice by cervical dislocation, femur and tibia were excised aseptically while removing soft tissues attached thereto, After cutting both ends of the long bones, 1 ml of an enzyme solution containing 0.1% collagenase (Gibco), 0.05% trypsin and 0.5 mM EDTA (Gibco) was injected into the bone marrow cavity at one end using a syringe with a 26-gauge needle, and the bone marrow was then collected. After stirring the recovered bone marrow for 30 min, the precipitated bone marrow cells were collected, and cultured in α-minimum essential medium (α-MEM) supplemented with 10% FBS for 24 hrs. Then, non-adherent cells, which are osteoclast pregenitors, were aliquoted onto a culture plate at a density of 2×10^5 cells per well, and cultured for 8 days in α-MEM supplemented with 20 ng/ml of macrophage-colony stimulating factor (M-CSF, Peprotech, USA), 30 ng/ml RANKL (Peprotech, USA), and 0.3, 1.0 or 3 μM of the compounds of the Examples. Control cells were cultured at the same condition except not adding the compounds of the Examples.
After cell culture for 8 days, the adherent cells were washed with PBS and fixed with citrate-acetate-formaldehyde for 5 min. The fixed cells were incubated at 37° C. for 1 hr in acetate buffer (pH 5.0) containing naphthol AS-BI phosphate, fast Garnet GBC solution and 7 mM tartrate buffer (pH 5.0) to conduct TRAP (tartrate-resistant acid phosphatase) staining.

Turning to `CCC(C)Oc1ccc(OCc2ccccc2/C(=C\OC)C(=O)OC)cc1` (stereo not drawn) [compound 175], the figures for the “Reduction (%) of the resorption pit area of osteoclasts” value (from here on “Reduction (%)”) with osteoclasts (0.3 uM), with osteoclasts (1 uM) and in the assay on osteoclasts (3 uM) were 99%, 100% and 100%, respectively. Besides, the “Osteoclast formation inhibitory effects (%)” value in assay [1] (0.3 μM) is on record as 14%; in assay [1] (1.0 μM) it was 100%; in assay [1] (3.0 μM), 100%.

Turning to `C=CCCOc1ccc(OCc2ccccc2/C(=C\OC)C(=O)OC)cc1` [compound 178], the “Reduction (%)” value with osteoclasts (0.3 uM) is listed as 97%; in the assay on osteoclasts (1 uM) it was 100%; in the assay on osteoclasts (3 uM), 100%. Moreover, the “Osteoclast formation inhibitory effects (%)” value in assay [1] (0.3 μM) was determined as 89%; in assay [1] (1.0 μM), 100%; in assay [1] (3.0 μM), 100%.

For `CCOc1ccc(OCc2ccccc2/C(=C\OC)C(=O)OC)cc1` [compound 183], the “Reduction (%)” value with osteoclasts (0.3 uM), with osteoclasts (1 uM) and in the assay on osteoclasts (3 uM) was 100% in each case. For the same compound, the entries for the “Osteoclast formation inhibitory effects (%)” value in assay [1] (0.3 μM), in assay [1] (1.0 μM) and in assay [1] (3.0 μM) were 96%, 100% and 100%, respectively.

On to `CCCOc1ccc(OCc2ccccc2/C(=C\OC)C(=O)OC)cc1` [compound 192], for which the “Reduction (%)” value in the assay on osteoclasts (0.3 uM), in the assay with osteoclasts (1 uM) and in the assay on osteoclasts (3 uM) was 100% each time. The “Osteoclast formation inhibitory effects (%)” value in assay [1] (0.3 μM) was 68%; in assay [1] (1.0 μM), 100%; in assay [1] (3.0 μM) it was 100%.

As to `CCCCCCCOc1cccc(OCc2ccccc2/C(=C\OC)C(=O)OC)c1` [compound 201], the “Reduction (%)” value in the assay on osteoclasts (0.3 uM), with osteoclasts (1 uM) and with osteoclasts (3 uM) was 100% in each case. The “Osteoclast formation inhibitory effects (%)” value in assay [1] (0.3 μM) was 12%; in assay [1] (1.0 μM), 70%; in assay [1] (3.0 μM), 100%.

Take `CCCCCCCCc1cccc(OCc2ccccc2/C(=C\OC)C(=O)OC)c1` [compound 229]: the “Reduction (%)” value in the assay with osteoclasts (0.3 uM) was 0.00%; in the assay with osteoclasts (1 uM), 100%; in the assay on osteoclasts (3 uM), 100%. For the same compound, the “Osteoclast formation inhibitory effects (%)” value in assay [1] (0.3 μM), in assay [1] (1.0 μM) and in assay [1] (3.0 μM) was 100% throughout.

In the case of `CO/C=C(/C(=O)OC)c1ccc(Cl)cc1COc1cccc(CO)c1` [compound 262], the “Reduction (%)” value came to 93% in the assay on osteoclasts (0.3 uM), 100% with osteoclasts (1 uM) and 100% with osteoclasts (3 uM). Moreover, the “Osteoclast formation inhibitory effects (%)” value turned out to be 93% in assay [1] (0.3 μM), 100% in assay [1] (1.0 μM) and 100% in assay [1] (3.0 μM).

Turning to `CCC(C)Oc1ccc(OCc2cc(F)ccc2/C(=C\OC)C(=O)OC)cc1` (stereo not drawn) [compound 319], the “Reduction (%)” value in the assay on osteoclasts (0.3 uM) is recorded as 0%; in the assay with osteoclasts (1 uM), 100%; with osteoclasts (3 uM) it was 100%. Besides, the entries for the “Osteoclast formation inhibitory effects (%)” value in assay [1] (0.3 μM), in assay [1] (1.0 μM) and in assay [1] (3.0 μM) were 82%, 100% and 100%, respectively.

The values above are taken from patent publication US7879835B2 (Korea Research Institute of Chemical Technology, priority 2004, dated 2011).
